Values quoted from earlier work as cited in patent US20190029235A1, “EFFICIENT, SCALABLE PATIENT-DERIVED XENOGRAFT SYSTEM BASED ON A CHICK CHORIOALLANTOIC MEMBRANE (CAM) IN VIVO MODEL” (Baylor College of Medicine, priority 2015, published 2019).

Assays:
[1] = test system: BCM-2147 breast cancer PDX line; settings: PDX line BCM-2147, tumor source Pre-treat Bx, mouse-based breast cancer PDX
[2] = test system: BCM-6257 breast cancer PDX line; settings: PDX line BCM-6257, tumor source Pre-treat Bx, mouse-based breast cancer PDX
[3] = test system: BCM-4013 breast cancer PDX line; settings: PDX line BCM-4013, tumor source Pre-treat Bx, mouse-based breast cancer PDX

Question: Which “Treatment Response” value [1] does the source give for `CC(=O)O[C@@]12CO[C@@H]1C[C@H](O)[C@@]1(C)C(=O)[C@H](O)C3=C(C)[C@@H](OC(=O)[C@H](O)[C@@H](NC(=O)OC(C)(C)C)c4ccccc4)C[C@@](O)([C@@H](OC(=O)c4ccccc4)[C@H]21)C3(C)C` [Docetaxel, docetaxel] here?
Answer: Its value is “Resistant”.

Question: And the “Treatment Response” value [2]?
Answer: Its value is “Sensitive”.

Question: What about the “Treatment Response” value [3] of the same compound?
Answer: The value was “Resistant”.

Question: For `N.N.O=C([O-])C1(C(=O)[O-])CCC1.[Pt+2]` [Carboplatin, carboplatin], which “Treatment Response” value [1] is on record?
Answer: Its value is “Sensitive”.

Question: And the “Treatment Response” value [2]?
Answer: The value was “Sensitive”.

Question: What about the “Treatment Response” value [3] of the same compound?
Answer: The value was “Resistant”.

Question: For `COc1cccc2c1C(=O)c1c(O)c3c(c(O)c1C2=O)C[C@@](O)(C(=O)CO)C[C@@H]3O[C@H]1C[C@H](N)[C@H](O)[C@H](C)O1` [Doxorubicin, doxorubicin], which “Treatment Response” value [1] is on record?
Answer: Its value is “Resistant”.

Question: And the “Treatment Response” value [2]?
Answer: The value was “Resistant”.

Question: And the “Treatment Response” value [3]?
Answer: The value was “Resistant”.
